{"source": "patent US5434256A", "about": "“Diamine platinum complexes as antitumor agents” (priority 1994, dated 1995)", "note": "pIC50: −log10 of the molar value.", "data": [{"system": "L1210/DACH cells", "assay": "MTT cytotoxicity, tetraplatin-resistant L1210/DACH (Example 5, Table 10)", "type": "cell-based, murine", "conditions": "72 hr (3 days) continuous exposure", "values": [{"molecule": "CCC(=O)[O][Pt]([Cl])([Cl])[O]C(=O)CC.N[C@@H]1CCCC[C@H]1N", "note": "[Compound 16, (R,R-1,2-DACH)PtCl2 trans-(Propionate)2]", "pIC50": 6.26}, {"molecule": "CCCC(=O)[O][Pt]([Cl])([Cl])[O]C(=O)CCC.N[C@@H]1CCCC[C@H]1N", "note": "[Compound 17, (R,R-1,2-diaminocyclohexane)PtCl2 trans(butyrate)2]", "pIC50": 6.77}, {"molecule": "CCCCC(=O)[O][Pt]([Cl])([Cl])[O]C(=O)CCCC.N[C@@H]1CCCC[C@H]1N", "note": "[Compound 18, (R,R-1,2-DACH)PtCl2 trans(pentanoate)2]", "pIC50": 6.62}, {"molecule": "CCCCCC(=O)[O][Pt]1([Cl])([Cl])([O]C(=O)CCCCC)[NH]C2CCCCC2[NH]1", "note": "[Compound 19, (R,R-1,2-DACH)PtCl2 trans-(hexanoate)2]", "pIC50": 5.82}]}, {"system": "L1210/0 cells", "assay": "MTT cytotoxicity, L1210/0 (Example 5, Table 10)", "type": "cell-based, murine", "conditions": "72 hr (3 days) continuous exposure", "values": [{"molecule": "CCC(=O)[O][Pt]([Cl])([Cl])[O]C(=O)CC.N[C@@H]1CCCC[C@H]1N", "note": "[Compound 16, (R,R-1,2-DACH)PtCl2 trans-(Propionate)2]", "pIC50": 6.96}, {"molecule": "CCCC(=O)[O][Pt]([Cl])([Cl])[O]C(=O)CCC.N[C@@H]1CCCC[C@H]1N", "note": "[Compound 17, (R,R-1,2-diaminocyclohexane)PtCl2 trans(butyrate)2]", "pIC50": 7.40}, {"molecule": "CCCCC(=O)[O][Pt]([Cl])([Cl])[O]C(=O)CCCC.N[C@@H]1CCCC[C@H]1N", "note": "[Compound 18, (R,R-1,2-DACH)PtCl2 trans(pentanoate)2]", "pIC50": 7.40}, {"molecule": "CCCCCC(=O)[O][Pt]1([Cl])([Cl])([O]C(=O)CCCCC)[NH]C2CCCCC2[NH]1", "note": "[Compound 19, (R,R-1,2-DACH)PtCl2 trans-(hexanoate)2]", "pIC50": 7.40}]}, {"system": "L1210/DDP cells", "assay": "MTT cytotoxicity, cisplatin-resistant L1210/DDP (Example 5, Table 10)", "type": "cell-based, murine", "conditions": "72 hr (3 days) continuous exposure", "values": [{"molecule": "CCC(=O)[O][Pt]([Cl])([Cl])[O]C(=O)CC.N[C@@H]1CCCC[C@H]1N", "note": "[Compound 16, (R,R-1,2-DACH)PtCl2 trans-(Propionate)2]", "pIC50": 6.25}, {"molecule": "CCCC(=O)[O][Pt]([Cl])([Cl])[O]C(=O)CCC.N[C@@H]1CCCC[C@H]1N", "note": "[Compound 17, (R,R-1,2-diaminocyclohexane)PtCl2 trans(butyrate)2]", "pIC50": 6.66}, {"molecule": "CCCCC(=O)[O][Pt]([Cl])([Cl])[O]C(=O)CCCC.N[C@@H]1CCCC[C@H]1N", "note": "[Compound 18, (R,R-1,2-DACH)PtCl2 trans(pentanoate)2]", "pIC50": 6.57}, {"molecule": "CCCCCC(=O)[O][Pt]1([Cl])([Cl])([O]C(=O)CCCCC)[NH]C2CCCCC2[NH]1", "note": "[Compound 19, (R,R-1,2-DACH)PtCl2 trans-(hexanoate)2]", "pIC50": 6.64}]}]}
